Patent publication EP0041615A1, “Use of imidazolyl-vinyl ketones and alcohols as antimicrobial agents” (BAYER AG, priority 1980, dated 1981)

How the values were obtained:
[1] = tested on: Dermatophyten und Schimmelpilze; Hefen; experiment: Antimycotic in-vitro activity, serial dilution test; format: cell-based; settings: inoculum 5 x 10^4 germs/ml, 28°C, 24 h (yeasts) or 96 h (dermatophytes, moulds), stated relative to prior-art compound (A)
Procedure: Antimykotische in-vitro-Wirksamkeit
Die in-vitro-Wirksamkeit im Reihenverdünnungstest wird mit Keiminokula von durchschnittlich 5 x 10^4 Keimen /ml Substant durchgeführt. Als Nährmedium dienten: • a) für Dermatophyten und Schimmelpilze: Sabouraud's milieu d'epreuve • b) für Hefen: Isotonic Sensitest-Broth von Oxid.
Die Bebrütungstemperatur berug 28°C; Bebrütungsdauer war 24 Stunden bei Hefen und 96 Stunden bei Dermatophyten und Schimmelpilzen.

[2] = tested on: Trichophyton mentagrophytes; experiment: Antimicrobial in-vivo activity (local), experimental guinea pig trichophytosis model; set-up: species or system Meerschweinchen der Rasse Pirbright-white; settings: once daily from day 3 p.i., 1 % solution in dimethyl sulfoxide:glycerol 1:4, result means only slight reddening and isolated scales
Description: Antimikrobielle in-vivo-Wirksamkeit (lokal) am Modell der experimetellen Meerschweinchen-Trichophytie
Weiße Meerschweinchen der Rasse Pirbright-white wurden auf dem geschorenen, nicht skarifizierten Rücken mit einer Mikro- und Makrokonidien-Suspension von Trichophyton mentagrophytes infiziert. Die infizierten Tiere wurden, beginnend am 3.Tag p.i., lx täglich mit 1%-iger Lösung der erfindungsgemäßen Präparate (in Dimethylsulfoxid:Glycerin=1:4) lokal behandelt.
Bei unbehandelten Tieren entwickelt sich innerhalb von 12 Tagen p.i. das typische Bild einer Dermatophytose mit Rötung, Schuppung und Haarausfall bis zum totalen Integument-Defekt an der Infektionsstelle.

Candida-Zellen = experiment: Antimycotic in-vivo activity (oral) in mouse candidosis; set-up: species or system Mäuse vom Typ SPF-CF1; settings: 50-100 mg/kg each 1 h before and 7 h after i.v. infection, untreated controls about 5 % survival on day 6 p.i.
Procedure: Antimykotische in-vivo-Wirksamkeit (oral) bei Mäuse-Candidose
Mäuse vom Typ SPF-CF1 wurden intravenös mit 1-2 x 10^6 logarithmisch wachsenden Candida-Zellen, die in physiologischer Kochsalzlösung suspendiert waren, infiziert. Eine Stunde vor und sieben Stunden nach der Infektion werden die Tiere mit jeweils 50-100 mg/kg Körpergewicht der Präparate oral behandelt.
Unbehandelte Tiere starben 3 bis 6 Tage post infektionem. Die Ueberlebensrate am 6.Tag post infektionem betrug bei unbehandelten Kontrolltieren etwa 5 %.

Row | Compound | antimykotische Wirkung [1] | Wirkung (Meerschweinchen-Trichophytie) [2] | Wirkung (Mäuse-Candidose) (Candida-Zellen)
1 | CC(C)(C)C(=O)C(=CC1CCCC1)n1ccnc1 [Beispiel 10] | bessere antimykotische Wirkung | – | –
2 | CC(C)(C)C(O)C(=CC1CCCC1)n1ccnc1 (stereo not shown) [Beispiel 28] | bessere antimykotische Wirkung | – | –
3 | CCC(C)C=C(C(=O)C(C)(C)C)n1ccnc1 (stereo not shown) [Beispiel 8] | bessere antimykotische Wirkung | Wirkung bis gute Wirkung | gute bis sehr gute Wirkung
4 | CC(C)(C)C(O)C(=CC1c2ccccc2-c2ccccc21)n1ccnc1 (stereo not shown) [Beispiel 32] | bessere antimykotische Wirkung | – | –
5 | CC(C)(C)C(O)C(=Cc1ccc(Cl)cc1)n1ccnc1 (stereo not shown) [(B), reference compound] | – | – | keine Wirkung
6 | CCCCCCCC=C(C(=O)C(C)(C)C)n1ccnc1 [Beispiel 1] | bessere antimykotische Wirkung | Wirkung bis gute Wirkung | –
7 | CC=C(C(O)C(C)(C)C)n1ccnc1 (stereo not shown) [Beispiel 25] | – | – | gute bis sehr gute Wirkung
8 | CC(C)C=C(C(=O)C(C)(C)C)n1ccnc1 [Beispiel 5] | bessere antimykotische Wirkung | – | gute bis sehr gute Wirkung
9 | CC(C)(C)C(=O)C(=Cc1ccccc1Cl)n1ccnc1 [Verbindung (A), reference compound] | – | – | keine Wirkung
10 | CC(C)(C)C=C(C(=O)C(C)(C)C)n1ccnc1 [Beispiel 7] | bessere antimykotische Wirkung | – | gute bis sehr gute Wirkung
11 | CC(C)(C)C(O)C(=CC1CCCCC1)n1ccnc1 (stereo not shown) [Beispiel 37] | bessere antimykotische Wirkung | – | –
12 | CCCCCCCC=C(C(O)C(C)(C)C)n1ccnc1 (stereo not shown) [Beispiel 2] | bessere antimykotische Wirkung | Wirkung bis gute Wirkung | –
13 | CCC(C)C=C(C(O)C(C)(C)C)n1ccnc1 (stereo not shown) [Beispiel 27] | – | Wirkung bis gute Wirkung | –
